Test results as given in US20030045541A1, “GABA-Receptor modulators with NMDA-Antagonistic activity” (priority 2001, published 2003).

Assays:
[1] = system: primary cell cultures of cortical neurons of rats; test: Oxygen and glucose deprivation (OGD) model, LDH level in the medium; type: cell-based; settings: for LDH level: OGD, after 24 hours, OGD control 25.1
Experimental: The measurements were performed on primary cell cultures of cortical neurons of rats. After the cells were grown in culture, the following test was performed:
Glucose and oxygen were simultaneously removed from the culture solution. This model is a definitely sturdy model, which simulates the conditions during a very serious and very extensive stroke. In the zero comparison, the culture solution was left unchanged (BSS=balanced salt solution). In the control, oxygen and glucose were removed (OGD=oxygen and glucose deprivation); in the test group, Abecarnil was added simultaneously to the oxygen and glucose removal.
As damage parameters for the neurons, the LDH (lactate-dehydrogenase) level in the solution was measured by the cells. LDH is a definitely reliable stress parameter for the cells. The stronger the neuronal stress is or the more cells are already ruined, the more the LDH levels in the medium increase. From a pharmaceutical agent with a neuroprotective effect, it can be expected that it reduces the LDH level in the medium.
In FIG. 1, the values of such a measurement were depicted. If the LDH levels were below OGD 25.1, they were 11.0 with 0.1 μm of Abecarnil; 6.2 with 1 μm of Abecarnil; 14.9 with 10 μm of Abecarnil, and 15 with 100 μm of Abecarnil (after 24 hours). In the case of an Abecarnil concentration of 1 μm, this corresponds to an LDH reduction of over 75%!

[2] = system: GABAA-receptor-mediated IPSCs; test: Inhibitory post-synaptic flows (IPSCs), patch-clamp on cultivated neurons; type: cell-based, Wistar
Experimental: (§1) The measurements were produced on cultivated neurons of Wistar embryos on the eighteenth day of gestation. After the preparation, the neurons were grown on small plates. To this end, small cover glasses for microscopic preparations with a diameter of 12 mm (assistant) were used. In each case four of the small cover glasses were transferred to a small plastic dish (Nuncion).
As preparation media, the following solutions were used: GBSS (Grey's buffered salt solution, Sigma) supplemented with 10 mmol of HEPES (N-2-hydroxyethyl-piperazine-N-2-ethanesulfonic acid, Sigma), adjusted to pH 7.3 with NaOH (Sigma). As culture media, the following were used: DMEM (Sigma), glucose-containing, equine serum 10% (Sigma) and glutamine. The cells were generally divided so that at the beginning of the culture, 50,000 cells per small plate were present. The medium was changed according to the preparation after 24 hours and then changed after three days in each case. Synaptic spontaneous activity developed generally starting from the tenth day in vitro.
The extracellular measuring solution had the following composition (in mmol): NaCl 140; KCl 5.4; CaCl2 2; HEPES 10; MgCl 1; glucose 25. The pH was set at 7.4 with NaOH. IPSCs were isolated by adding 1,2,3,4,-tetrahydro-6-nitro-2,3-di-oxo-benzo-quinoxaline-7-sulfonamide (NBQX 10 μm) and DL-2-amino-5-phosphonovaleric acid (±-APV 30 μm). EPSCs were isolated by adding bicuculline (10 μm) and picrotoxin (20 μm). In the examination of the EPSCs, a ringer solution without MgCl2 was used. The pipette solution had the following composition (in mmol): KCl 120; MgCl2 2; CaCl2 1; HEPES 10; EGTA 11; glucose 20; the pH was 7.2.
(§2) The measurements were carried out at room temperature. […] The thus modulated signals were visualized by means of a storage oscilloscope and recorded with a thermal plotter. At the same time, the signals were detected via a […] and recorded on a videotape. The stored data were later played back, digitalized again and then evaluated “offline” with a PC. […]

glutamatergic EPSCs = test: Excitatory post-synaptic flows (EPSCs), patch-clamp on cultivated neurons; type: cell-based, Wistar; settings: P<0.05
Experimental: as §1
(§3) As preparation media, the following solutions were used: GBSS (Grey's buffered salt solution, Sigma) supplemented with 10 mmol of HEPES (N-2-hydroxyethyl-piperazine-N-2-ethanesulfonic acid, Sigma), adjusted to pH 7.3 with NaOH (Sigma). […]
as §2
Excitatory post-synaptic flows (EPSCs) were isolated by adding the GABAA-receptor antagonists bicuculline (20 μm) and the GABAA-receptor antagonist picrotoxin (10 μm) that has an allosteric effect. […] The pure EPSCs that can now be detected could be blocked completely by adding 10 μm of NBQX and 30 μm of APV and thus are purely glutamatergic.

AMPA-ergic activity = test: Isolated AMPA-ergic activity of EPSCs (30 μm APV applied); type: cell-based, Wistar; settings: 30 μm of APV on isolated EPSCs; n=3
Experimental: as §1, §3, §2
(§4) Excitatory post-synaptic flows (EPSCs) were isolated by adding the GABAA-receptor antagonists bicuculline (20 μm) and the GABAA-receptor antagonist picrotoxin (10 μm) that has an allosteric effect. […] The pure EPSCs that can now be detected could be blocked completely by adding 10 μm of NBQX and 30 μm of APV and thus are purely glutamatergic. […]

NMDA receptor = test: Isolated NMDA portion of EPSCs (10 μm NBQX applied); type: cell-based, Wistar; settings: 10 μm of NBQX on isolated EPSCs, 1 μm of compound; n=7
Experimental: as §1, §3, §2, §4

COCc1c(C(=O)OC(C)C)ncc2[nH]c3ccc(OCc4ccccc4)cc3c12 [Abecarnil, 6-benzyloxy-4-methoxymethyl-β-carboline-3-carboxylic acid isopropyl ester]
LDH level ([1]; 0.1 μm of Abecarnil): 11.0
LDH level ([1]; 1 μm of Abecarnil): 6.2
LDH reduction ([1]; 1 μm of Abecarnil, versus OGD): over 75%
LDH level ([1]; 10 μm of Abecarnil): 14.9
LDH level ([1]; 100 μm of Abecarnil): 15
slow time constant of the averaged IPSCs (τslow), % of the starting value ([2]; P<0.05): 289.7±180.9%
IPSC frequency, % of the starting value ([2]; n=10, P<0.05): 33.8±24.7%
quick time constant of the averaged IPSCs (τfast), % of the starting value ([2]; no statistical significance): 143.9±51.0%
EPSC amplitude, % of the starting value (glutamatergic EPSCs): 81.2±17.8%
EPSC frequency, % of the starting value (glutamatergic EPSCs): 32.6±19.8%
effect on isolated AMPA-ergic activity (AMPA-ergic activity): no effect
effect on isolated NMDA portion of EPSC activity (NMDA receptor): completely blocked
